Measurements from PubChem BioAssay AID2060341 (Molecular Pharmacology Branch, DTP, NCI, 2025).

System: 327498-153-R-J2-PDC multicell spheroid viability
Experiment: Anticancer human tumor 327498-153-R-J2-PDC patient-derived uterine carcinosarcoma cell line growth inhibition [IpAb]
Conditions: for IC50: curve of first compound; for viability, T/C: stronger effect = lower value; active = viability on the fitted dose curve at most 10% of control; inactive = the rest
Outline: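 Combinations with ipatasertib or abemaciclib were tested on tumour spheroids holding HUVEC (25%) and MSC (15%) alongside 60% malignant cells. Top concentration was at or near clinical Cmax (10 microM if undefined), descending in half-log steps.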
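Note: spheroids exposed to agents for 7 days.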
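Throughout, for viability, T/C: 100% = DMSO vehicle control viability.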

Cn1ncc(Cl)c1-c1cc(C(=O)NC(CN)Cc2cccc(F)c2)sc1Cl (stereo not given) + CCN1CCN(Cc2ccc(Nc3ncc(F)c(-c4cc(F)c5nc(C)n(C(C)C)c5c4)n3)nc2)CC1
< 31.6 nM: IC50 (second compound 0.316 µM)
312 nM: IC50 (second compound 0.01 µM)
inactive: viability, T/C (second compound 0.01 µM, first compound 0.0316 µM) 78% | viability, T/C (second compound 0.01 µM, first compound 0.1 µM) 60.3% | viability, T/C (second compound 0.01 µM, first compound 0.316 µM) 48.7% | viability, T/C (second compound 0.01 µM, first compound 1 µM) 35.4% | viability, T/C (second compound 0.01 µM, first compound 3.16 µM) 24.5% | viability, T/C (second compound 0.0316 µM, first compound 0.0316 µM) 64.5% | viability, T/C (second compound 0.0316 µM, first compound 0.1 µM) 49% | viability, T/C (second compound 0.0316 µM, first compound 0.316 µM) 40.5% | viability, T/C (second compound 0.0316 µM, first compound 1 µM) 27.9% | viability, T/C (second compound 0.0316 µM, first compound 3.16 µM) 24% | viability, T/C (second compound 0.1 µM, first compound 0.0316 µM) 53.4% | viability, T/C (second compound 0.1 µM, first compound 0.1 µM) 46.2% | viability, T/C (second compound 0.1 µM, first compound 0.316 µM) 34.4% | viability, T/C (second compound 0.1 µM, first compound 1 µM) 28.1% | viability, T/C (second compound 0.1 µM, first compound 3.16 µM) 21.1% | viability, T/C (second compound 0.316 µM, first compound 0.0316 µM) 48.9% | viability, T/C (second compound 0.316 µM, first compound 0.1 µM) 44.5% | viability, T/C (second compound 0.316 µM, first compound 0.316 µM) 33.9% | viability, T/C (second compound 0.316 µM, first compound 1 µM) 28.9% | viability, T/C (second compound 0.316 µM, first compound 3.16 µM) 20.6% | viability, T/C (second compound 1 µM, first compound 0.0316 µM) 54.1% | viability, T/C (second compound 1 µM, first compound 0.1 µM) 49.1% | viability, T/C (second compound 1 µM, first compound 0.316 µM) 34.9% | viability, T/C (second compound 1 µM, first compound 1 µM) 29.9% | viability, T/C (second compound 1 µM, first compound 3.16 µM) 21.7%
125 nM: IC50 (second compound 0.0316 µM)
active: viability, T/C (second compound 0.01 µM, first compound 10 µM) 0.14% | viability, T/C (second compound 0.0316 µM, first compound 10 µM) 0.12% | viability, T/C (second compound 0.1 µM, first compound 10 µM) 0.12% | viability, T/C (second compound 0.316 µM, first compound 10 µM) 0.14% | viability, T/C (second compound 1 µM, first compound 10 µM) 0.2%
64.4 nM: IC50 (second compound 1 µM)
50.1 nM: IC50 (second compound 0.1 µM)
